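Briefly, cells in 96-well plates were exposed to five compound concentrations for 48 h, and endpoints were estimated by linear interpolation. TGI marks complete inhibition of growth.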
Assays:
Assay in all cases: inhibition of tumour cell growth, NCI panel, 48 h
SNB-75 CNS = test system: SNB-75 CNS
NCI-H522 lung = test system: NCI-H522 lung
IGROV1 ovarian = test system: IGROV1 ovarian
HOP-18 NSCLC = test system: HOP-18 NSCLC
UACC-62 melanoma = test system: UACC-62 melanoma
OVCAR-8 ovarian = test system: OVCAR-8 ovarian
SN12C renal = test system: SN12C renal
OVCAR-5 ovarian = test system: OVCAR-5 ovarian
CCRF-CEM leukemia = test system: CCRF-CEM leukemia
DLD-1 colon = test system: DLD-1 colon
KM12 colon = test system: KM12 colon
HL-60(TB) leukemia = test system: HL-60(TB) leukemia
A549 NSCLC = test system: A549 NSCLC
M14 melanoma = test system: M14 melanoma
COLO 205 colon = test system: COLO 205 colon
SF-295 CNS = test system: SF-295 CNS
SR leukemia = test system: SR leukemia
K-562 leukemia = test system: K-562 leukemia
RPMI-8226 leukemia = test system: RPMI-8226 leukemia
LOX IMVI melanoma = test system: LOX IMVI melanoma
SK-MEL-5 melanoma = test system: SK-MEL-5 melanoma
SW-620 colon = test system: SW-620 colon
NCI-H460 lung = test system: NCI-H460 lung
MOLT-4 leukemia = test system: MOLT-4 leukemia
SF-268 CNS = test system: SF-268 CNS
KM20L2 colon = test system: KM20L2 colon
OVCAR-4 ovarian = test system: OVCAR-4 ovarian
CAKI-1 renal = test system: CAKI-1 renal
SK-OV-3 ovarian = test system: SK-OV-3 ovarian
M19-MEL melanoma = test system: M19-MEL melanoma
U251 CNS = test system: U251 CNS
UO-31 renal = test system: UO-31 renal
UACC-257 melanoma = test system: UACC-257 melanoma
HT29 colon = test system: HT29 colon
LXFL 529 NSCLC = test system: LXFL 529 NSCLC
SK-MEL-2 melanoma = test system: SK-MEL-2 melanoma
HCC-2998 colon = test system: HCC-2998 colon
786-0 renal = test system: 786-0 renal
ACHN renal = test system: ACHN renal
A498 renal = test system: A498 renal
HCT-15 colon = test system: HCT-15 colon
HOP-92 NSCLC = test system: HOP-92 NSCLC
TK-10 renal = test system: TK-10 renal
SNB-78 CNS = test system: SNB-78 CNS
MALME-3M melanoma = test system: MALME-3M melanoma
DMS 273 small cell lung = test system: DMS 273 small cell lung
NCI-H226 lung = test system: NCI-H226 lung
RXF-631 renal = test system: RXF-631 renal
SF-539 CNS = test system: SF-539 CNS
HOP-62 NSCLC = test system: HOP-62 NSCLC
SNB-19 CNS = test system: SNB-19 CNS
RXF 393 renal = test system: RXF 393 renal
DMS 114 small cell lung = test system: DMS 114 small cell lung
HCT-116 colon = test system: HCT-116 colon
MDA-MB-231 breast = test system: MDA-MB-231 breast
SK-MEL-28 melanoma = test system: SK-MEL-28 melanoma
BT-549 breast = test system: BT-549 breast
DU-145 prostate = test system: DU-145 prostate
T-47D breast = test system: T-47D breast
MDA-N = test system: MDA-N
OVCAR-3 ovarian = test system: OVCAR-3 ovarian
EKVX NSCLC = test system: EKVX NSCLC
MCF7 breast = test system: MCF7 breast
PC-3 prostate = test system: PC-3 prostate
NCI-H23 lung = test system: NCI-H23 lung
MDA-MB-435 = test system: MDA-MB-435
HS 578T breast = test system: HS 578T breast

COc1cc2c(c(OC)c1OC)CCNC2C1=C(O)COC1=O (stereo unspecified)
TGI (SNB-75 CNS): > 100 µM
TGI (NCI-H522 lung): > 100 µM
TGI (IGROV1 ovarian): > 100 µM
TGI (HOP-18 NSCLC): > 100 µM
TGI (UACC-62 melanoma): > 100 µM
TGI (OVCAR-8 ovarian): > 100 µM
TGI (SN12C renal): > 100 µM
TGI (OVCAR-5 ovarian): > 100 µM
TGI (CCRF-CEM leukemia): > 100 µM
TGI (DLD-1 colon): > 100 µM
TGI (KM12 colon): > 100 µM
TGI (HL-60(TB) leukemia): > 100 µM
TGI (A549 NSCLC): > 100 µM
TGI (M14 melanoma): > 100 µM
TGI (COLO 205 colon): > 100 µM
TGI (SF-295 CNS): > 100 µM
TGI (SR leukemia): > 100 µM
TGI (K-562 leukemia): > 100 µM
TGI (RPMI-8226 leukemia): > 100 µM
TGI (LOX IMVI melanoma): > 100 µM
TGI (SK-MEL-5 melanoma): > 100 µM
TGI (SW-620 colon): > 100 µM
TGI (NCI-H460 lung): > 100 µM
TGI (MOLT-4 leukemia): > 100 µM
TGI (SF-268 CNS): > 100 µM
TGI (KM20L2 colon): > 100 µM
TGI (OVCAR-4 ovarian): > 100 µM
TGI (CAKI-1 renal): > 100 µM
TGI (SK-OV-3 ovarian): > 100 µM
TGI (M19-MEL melanoma): > 100 µM
TGI (U251 CNS): > 100 µM
TGI (UO-31 renal): > 100 µM
TGI (UACC-257 melanoma): > 100 µM
TGI (HT29 colon): > 100 µM
TGI (LXFL 529 NSCLC): > 100 µM
TGI (SK-MEL-2 melanoma): > 100 µM
TGI (HCC-2998 colon): > 100 µM
TGI (786-0 renal): > 100 µM
TGI (ACHN renal): > 100 µM
TGI (A498 renal): > 100 µM
TGI (HCT-15 colon): > 100 µM
TGI (HOP-92 NSCLC): > 100 µM
TGI (TK-10 renal): > 100 µM
TGI (SNB-78 CNS): > 100 µM
TGI (MALME-3M melanoma): > 100 µM
TGI (DMS 273 small cell lung): > 100 µM
TGI (NCI-H226 lung): 99.5 µM
TGI (RXF-631 renal): > 100 µM
TGI (SF-539 CNS): > 100 µM
TGI (HOP-62 NSCLC): > 100 µM
TGI (SNB-19 CNS): > 100 µM
TGI (RXF 393 renal): > 100 µM
TGI (DMS 114 small cell lung): > 100 µM
TGI (HCT-116 colon): > 100 µM

CN(C)CCNC(=O)c1cccc2nc3c(ccc4ccccc43)nc12
TGI (MDA-MB-231 breast): 4.12 µM
TGI (SNB-75 CNS): 16.5 µM
TGI (NCI-H522 lung): 18.7 µM
TGI (IGROV1 ovarian): 22.2 µM
TGI (HOP-18 NSCLC): 29.9 µM
TGI (UACC-62 melanoma): 5.2 µM
TGI (OVCAR-8 ovarian): 7.84 µM
TGI (SN12C renal): 14.6 µM
TGI (OVCAR-5 ovarian): 15 µM
TGI (CCRF-CEM leukemia): 4.68 µM
TGI (DLD-1 colon): 8.25 µM
TGI (SK-MEL-28 melanoma): 4.37 µM
TGI (BT-549 breast): 22.8 µM
TGI (KM12 colon): 6.9 µM
TGI (HL-60(TB) leukemia): 3.98 µM
TGI (DU-145 prostate): 16.4 µM
TGI (A549 NSCLC): 12.2 µM
TGI (T-47D breast): 20.6 µM
TGI (M14 melanoma): 11 µM
TGI (COLO 205 colon): 11.3 µM
TGI (MDA-N): 3.21 µM
TGI (SF-295 CNS): 14.3 µM
TGI (OVCAR-3 ovarian): 19.7 µM
TGI (EKVX NSCLC): 17.8 µM
TGI (SR leukemia): 4.25 µM
TGI (K-562 leukemia): 4.86 µM
TGI (RPMI-8226 leukemia): 6.66 µM
TGI (LOX IMVI melanoma): 2.44 µM
TGI (SK-MEL-5 melanoma): 4.03 µM
TGI (SW-620 colon): 3.61 µM
TGI (NCI-H460 lung): 1.91 µM
TGI (MOLT-4 leukemia): 1.6 µM
TGI (SF-268 CNS): 2.19 µM
TGI (KM20L2 colon): 3.15 µM
TGI (MCF7 breast): 3.27 µM
TGI (OVCAR-4 ovarian): 5.27 µM
TGI (CAKI-1 renal): 12.9 µM
TGI (SK-OV-3 ovarian): 24.2 µM
TGI (M19-MEL melanoma): 3.02 µM
TGI (U251 CNS): 4.49 µM
TGI (UO-31 renal): 14.9 µM
TGI (UACC-257 melanoma): 3.4 µM
TGI (HT29 colon): 4.08 µM
TGI (LXFL 529 NSCLC): 14 µM
TGI (SK-MEL-2 melanoma): 3.86 µM
TGI (PC-3 prostate): 10.1 µM
TGI (HCC-2998 colon): 7.18 µM
TGI (786-0 renal): 17.6 µM
TGI (ACHN renal): 4.34 µM
TGI (A498 renal): 15.5 µM
TGI (HCT-15 colon): 4.6 µM
TGI (HOP-92 NSCLC): 17.3 µM
TGI (NCI-H23 lung): 15.9 µM
TGI (TK-10 renal): 20.6 µM
TGI (SNB-78 CNS): 19.4 µM
TGI (MALME-3M melanoma): 3.05 µM
TGI (MDA-MB-435): 13.7 µM
TGI (DMS 273 small cell lung): > 100 µM
TGI (HS 578T breast): 22.8 µM
TGI (NCI-H226 lung): 10.9 µM
TGI (RXF-631 renal): 2.43 µM
TGI (SF-539 CNS): 3.59 µM
TGI (HOP-62 NSCLC): 7.88 µM
TGI (SNB-19 CNS): 18.1 µM
TGI (RXF 393 renal): 9.54 µM
TGI (DMS 114 small cell lung): 8.12 µM
TGI (HCT-116 colon): 5.68 µM
